“Also recorded” adds a separate entry of the source. Read-outs that look alike come from different tables or passages of the source.
How the values were obtained:
[1] = Intrinsic clearance in liver microsomes, mouse; type: in vitro ADME; details: pH 7.4, Method 1, read-out: Half-Life (T1/2) (min), Mouse
Summary of the method: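 Compound at 1 μM (0.1–1% DMSO) incubated at 37 °C with mouse or rat liver microsomes (0.5 mg/mL protein) and 1 mM NADPH in PBS pH 7.4; samples taken up to 60 min and quenched in cold acetonitrile. LC-MS/MS of percent remaining gave half-life and CLint; no-NADPH controls run.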

BRD4 BD2 = BRD4 BD2 (Homo sapiens (Human), UniProt O60885); assay: NanoBRET bromodomain assay, NanoLuc-BRD4-BD2 fusion in HEK293 cells;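 further: tracer displacement BRET read in transfected cells after 2 h compound exposure at 37 °C, signal in milliBRET units corrected against no-tracer background wells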
[2] = Beagle dog PK study 2 of Example 101 (HPβCD based formulation, IV), with clinical observations; type: in vivo; details: for concentration at 0.083 h / concentration at 0.25 h / concentration at 0.5 h / concentration at 1 h / concentration at 2 h / concentration at 4 h / concentration at 8 h / concentration at 24 h / AUC(0-inf) / AUC(0-t) / C0 / half-life / MRT inf / Vd: beagle, dog, plasma, iv, 1 mg/kg; for MRT inf: read-out: MRTInf—obs; for Vd: read-out: Vss—obs
Procedure: The purpose of this study was to examine the pharmacokinetics of Example 101 in beagle dogs. […] An oral PK study was also undertaken in Lewis rats—see Experimental Method C.
Body weight was recoded prior to dosing, and detailed clinical observations were made prior to dosing and throughout the study, as needed.
78.646 mL of HPβCD (20% solution w/v) was then added with vortex and sonication.
Blood samples (˜0.3 mL) were collected according to a schedule (shown below) by venipuncture of peripheral veins except for the dosing vein, and EDTA-K2 was used as anticoagulant. Within 30 minutes of collection, the samples were centrifuged at approximately 2000×g for 10 minutes at 4° C. to obtain blood plasma. The plasma samples were immediately divided into two aliquots (˜75 μL each), transferred to a cryogenic vial, and stored in a freezer at ˜75±15° C. prior to analysis.
Blood samples were collected at 0.083, 0.25, 0.5, 1, 2, 4, 8, and 24 h following the initial dosing (0 h).
The experiments were conducted on a Shimadzu DGU-20A5R and AB API 5500+LC/MS/MS instrument with an Agilent Poroshell EC-C18 4 μm (50×2.1 mm) column. A gradient of 95% water (0.1% formic acid)/95% acetonitrile (0.1% formic acid) was used as the mobile phase. The sample injection volume was 1 μL, and the flow rate was 0.6 mL/min. The gathered data were used for pharmacokinetic calculations using T½, C0, AUClast, AUCinf, MRTinf, CI, Vss, and Number of Points for Regression as parameters.

[3] = beagle dogs, IV, 0.5 mg/mL in HPβCD based formulation, PK study 2
[4] = dog PK study 2, IV 1 mg/kg, HPβCD, Test Animal 1, read-out: Plasma concentration
[5] = dog PK study 2, IV 1 mg/kg, HPβCD, Test Animal 2, read-out: Plasma concentration
[6] = dog PK study 2, IV 1 mg/kg, HPβCD, Test Animal 3, read-out: Plasma concentration
[7] = dog PK study 2, IV 1 mg/kg, HPβCD, mean, read-out: Average plasma concentration, Mean
[8] = dog PK study 2, IV 1 mg/kg, HPβCD, Test Animal 1
[9] = dog PK study 2, IV 1 mg/kg, HPβCD, Test Animal 2
[10] = dog PK study 2, IV 1 mg/kg, HPβCD, Test Animal 3
[11] = dog PK study 2, IV 1 mg/kg, HPβCD, mean

Structure (SMILES): CNC(=O)c1[nH]c(C(=O)NC2CCC2)cc1O[C@@H](C)c1ccccc1 (stereo in doubt) [Example 101, N^5-cyclobutyl-N^2-methyl-3-(1-phenylethoxy)-1H-pyrrole-2,5-dicarboxamide]
- half-life at 1 μM [1]: 27 min
- selectivity for BDII relative to GSK620 (BRD4 BD2): more selective than GSK620 for BDII by greater than about two orders of magnitude
- IC50 (BRD4 BD2; BRD4 BD2 (IC50), NanoBRET, HEK293 cells, top concentration 10 μM): < 0.05 µM
- Fold selectivity (BRD4 BD2; IC50 for BRD4 BD1 divided by IC50 for BRD4 BD2, qualitative if an IC50 is at the upper limit): XXX (Fold >200)
- clinical observations [2, 3]: soft feces 8 hours after administration; also recorded: No other clinical observations were made; also recorded: fewer clinical observations in response to Example 101 when prepared in HPβCD
- plasma concentration as a function of time (FIGS. 1D-1E) [2, 3]: Plasma concentrations decreased similarly over the first 2 h post-administration
- concentration at 0.083 h [2, 4]: 1270 ng/mL
- concentration at 0.083 h [2, 5]: 1460 ng/mL
- concentration at 0.083 h [2, 6]: 1580 ng/mL
- concentration at 0.083 h [2, 7]: 1440 ng/mL
- concentration at 0.25 h [2, 4]: 721 ng/mL
- concentration at 0.25 h [2, 5]: 820 ng/mL
- concentration at 0.25 h [2, 6]: 985 ng/mL
- concentration at 0.25 h [2, 7]: 842 ng/mL
- concentration at 0.5 h [2, 4]: 322 ng/mL
- concentration at 0.5 h [2, 5]: 498 ng/mL
- concentration at 0.5 h [2, 6]: 702 ng/mL
- concentration at 0.5 h [2, 7]: 507 ng/mL
- concentration at 1 h [2, 4]: 187 ng/mL
- concentration at 1 h [2, 5]: 140 ng/mL
- concentration at 1 h [2, 6]: 320 ng/mL
- concentration at 1 h [2, 7]: 216 ng/mL
- concentration at 2 h [2, 4]: 49.3 ng/mL
- concentration at 2 h [2, 5]: 54.1 ng/mL
- concentration at 2 h [2, 6]: 159 ng/mL
- concentration at 2 h [2, 7]: 87 ng/mL
- concentration at 4 h [2, 4]: 4.83 ng/mL
- concentration at 4 h [2, 5]: 10.8 ng/mL
- concentration at 4 h [2, 6]: 42.1 ng/mL
- concentration at 4 h [2, 7]: 19.2 ng/mL
- concentration at 8 h [2, 4]: 0 ng/mL
- concentration at 8 h [2, 5]: 2.5 ng/mL
- concentration at 8 h [2, 6]: 6.58 ng/mL
- concentration at 8 h [2, 7]: 3.03 ng/mL
- concentration at 24 h ([2]; dog PK study 2, IV 1 mg/kg, HPβCD, 24 h, Test Animal 1): 0 ng/mL
- concentration at 24 h ([2]; dog PK study 2, IV 1 mg/kg, HPβCD, 24 h, Test Animal 2): 0 ng/mL
- concentration at 24 h ([2]; dog PK study 2, IV 1 mg/kg, HPβCD, 24 h, Test Animal 3): 0 ng/mL
- AUC(0-inf) [2, 8]: 723 ng·h/mL
- AUC(0-t) [2, 8]: 719 ng·h/mL
- C0 [2, 8]: 1680 ng/mL
- half-life [2, 8]: 34.4 min
- MRT inf [2, 8]: 36.4 min
- Vd [2, 8]: 0.838 L/kg
- AUC(0-inf) [2, 9]: 850 ng·h/mL
- AUC(0-t) [2, 9]: 844 ng·h/mL
- C0 [2, 9]: 1940 ng/mL
- half-life [2, 9]: 84.6 min
- MRT inf [2, 9]: 45.1 min
- Vd [2, 9]: 0.886 L/kg
- AUC(0-inf) [2, 10]: 1380 ng·h/mL
- AUC(0-t) [2, 10]: 1370 ng·h/mL
- C0 [2, 10]: 2000 ng/mL
- half-life [2, 10]: 79.8 min
- MRT inf [2, 10]: 72 min
- Vd [2, 10]: 0.868 L/kg
- AUC(0-inf) [2, 11]: 984 ng·h/mL
- AUC(0-t) [2, 11]: 977 ng·h/mL
- C0 [2, 11]: 1880 ng/mL
- half-life [2, 11]: 66 min
- MRT inf [2, 11]: 51 min
- Vd [2, 11]: 0.864 L/kg
- Average plasma concentration, Mean ([2]; dog PK study 2, IV 1 mg/kg, HPβCD, 24 h, mean): BLOQ
- AUClast/D [2, 8]: 719 (ng · h/mL)/(mg/kg)
- AUC—% Extrap—obs [2, 8]: 0.552%
- Cl_obs [2, 8]: 23.1 mL/min/kg
- AUClast/D [2, 9]: 844 (ng · h/mL)/(mg/kg)
- AUC—% Extrap—obs [2, 9]: 0.599%
- Cl_obs [2, 9]: 19.6 mL/min/kg
- AUClast/D [2, 10]: 1367 (ng · h/mL)/(mg/kg)
- AUC—% Extrap—obs [2, 10]: 0.915%
- Cl_obs [2, 10]: 12.1 mL/min/kg
- AUClast/D [2, 11]: 977 (ng · h/mL)/(mg/kg)
- AUC—% Extrap—obs [2, 11]: 0.689%
- Cl_obs [2, 11]: 18.3 mL/min/kg

Source: patent US20250263370A1 (Tay Therapeutics Limited, priority 2022, published 2025)
